Assay results as given in ChEMBL document CHEMBL5344418, “Recent developments in antimalarial activities of 4-aminoquinoline derivatives” (Eur J Med Chem, 2023).

Experiments:
[1] = Cytotoxicity against African green monkey Vero cells assessed as reduction in cell viability incubated for 24 hrs by fluorescence based analysis; type: toxicity; conditions: African green monkey (Chlorocebus sabaeus)
Hemozoin [2] = assay: Inhibition of Beta-hematin formation in Plasmodium falciparum 3D7 by spectrophotometric analysis
Hemozoin [3] = assay: Inhibition of Beta-hematin formation in Plasmodium falciparum K1 by spectrophotometric analysis
Plasmodium falciparum [4] = assay: Antimalarial activity against chloroquine-resistant Plasmodium falciparum K1 assessed as reduction in parasite growth incubated for 72 hrs by SYBR Green staining based fluorescence analysis; type: functional, organism-based; conditions: K1, 72 h
[5] = Cytotoxicity against African green monkey Vero cells assessed as reduction in cell viability incubated for 72 hrs by MTT assay; type: toxicity, cell-based; conditions: chlorocebus sabaeus
Plasmodium falciparum [6] = assay: Antimalarial activity against chloroquine-sensitive Plasmodium falciparum 3D7 assessed as reduction in parasite growth incubated for 72 hrs by SYBR Green staining based fluorescence analysis; type: functional, organism-based; conditions: 3D7, 72 h
[7] = Cytotoxicity against African monkey Vero cells assessed as reduction in cell viability incubated for 72 hrs by MTT assay; type: toxicity, cell-based; conditions: chlorocebus sabaeus
Plasmodium falciparum [8] = assay: Antimalarial activity against chloroquine-sensitive Plasmodium falciparum 3D7 assessed as reduction in parasite growth incubated for 36 hrs by Giemsa staining based microscopic analysis; type: functional, organism-based; conditions: 3D7, 36 h
[9] = Cytotoxicity against Chinese hamster CHO cells assessed as reduction in cell viability by MTT assay; type: toxicity, cell-based; conditions: Chinese hamster (Cricetulus griseus)
Plasmodium falciparum [10] = assay: Antiplasmodial activity against chloroquine-sensitive Plasmodium falciparum NF54 by lactate dehydrogenase assay; type: functional, organism-based
Plasmodium falciparum [11] = assay: Antiplasmodial activity against Plasmodium falciparum 3D7; type: functional, organism-based
Plasmodium falciparum [12] = assay: Antiplasmodial activity against chloroquine-resistant Plasmodium falciparum W2 assessed as parasitic growth inhibition incubated for 72 hrs by SYBR Green staining based fluorescence analysis; type: functional, organism-based; conditions: W2, 72 h

Row | Structure (SMILES) | IC50 (Plasmodium falciparum [4]) | CC50 at 72 h [5] | IC50 (Plasmodium falciparum [6]) | further results
1 | O=C1c2cccc(N3CCOCC3)c2C(=O)N1CCCCNc1ccnc2cc(Cl)ccc12 | – | – | – | IC50 at 24 h [1]: 108000 nM
2 | Clc1ccc2c(NCCn3cncc3-c3ccc[nH]3)ccnc2c1 | – | – | – | IC50 (Hemozoin [2]): 5000 nM; IC50 (Hemozoin [3]): 1150 nM
3 | CN(CCCN1CCOCC1)c1ccnc2cc(C(F)(F)F)ccc12 | 820 nM | 200000 nM | 880 nM | –
4 | CCN(CC)CC(CC(C)C)N(C)c1ccnc2cc(C(F)(F)F)ccc12 (stereo unspecified) | 2500 nM | 52000 nM | 3800 nM | –
5 | CN(CCCN1CCCC1)c1ccnc2cc(Cl)ccc12 | 110 nM | 80200 nM | 190 nM | –
6 | Fc1ccc(-c2cncn2CCNc2ccnc3cc(Cl)ccc23)cc1 | – | – | – | IC50 (Hemozoin [2]): 5000 nM; IC50 (Hemozoin [3]): 3040 nM
7 | O=C(Cn1cc(COc2ccc(Br)cc2)nn1)NCCCCCCNc1ccnc2cc(Cl)ccc12 | – | – | – | CC50 at 72 h [7]: 112000 nM; IC50 (Plasmodium falciparum [8]): 307 nM
8 | CC(C)CC(CN1CCCC1)N(C)c1ccnc2cc(C(F)(F)F)ccc12 (stereo unspecified) | 1600 nM | 52000 nM | 1240 nM | –
9 | COc1ccc(/C=C/C(=O)c2ccc(S(=O)(=O)NCCNc3cncc4cc(Cl)ccc34)cc2)cc1OC | – | – | – | IC50 [9]: 45100 nM; IC50 (Plasmodium falciparum [10]): 330 nM
10 | Clc1ccc2c(NCCn3cncc3-c3cccc4ccccc34)ccnc2c1 | – | – | – | IC50 (Hemozoin [2]): 5000 nM; IC50 (Hemozoin [3]): 920 nM
11 | CC(CNC(CCN(Cc1ccccc1)Cc1ccccc1)c1ccccc1)Nc1ccnc2cc(Cl)ccc12 (stereo unspecified) | – | – | – | IC50 (Plasmodium falciparum [11]): 2700 nM
12 | O=C(/C=C/c1cc(F)ccc1F)c1ccc(S(=O)(=O)NCCCNc2cncc3cc(Cl)ccc23)cc1 | – | – | – | IC50 [9]: 43700 nM; IC50 (Plasmodium falciparum [10]): 790 nM
13 | O=C(Cn1cc(COc2ccccc2)nn1)NCCCNc1ccnc2cc(Cl)ccc12 | – | – | – | CC50 at 72 h [7]: 40600 nM; IC50 (Plasmodium falciparum [8]): 180000 nM
14 | O=C(/C=C/c1ccc(OC(F)(F)F)cc1)c1ccc(S(=O)(=O)NCCCNc2cncc3cc(Cl)ccc23)cc1 | – | – | – | IC50 [9]: 44000 nM; IC50 (Plasmodium falciparum [10]): 510 nM
15 | Cc1ccc(OCc2cn(CC(=O)NCCCCNc3ccnc4cc(Cl)ccc34)nn2)cc1 | – | – | – | CC50 at 72 h [7]: 5020 nM; IC50 (Plasmodium falciparum [8]): 83600 nM
16 | O=C(Cn1cc(COc2ccc(Cl)cc2)nn1)NCCCCNc1ccnc2cc(Cl)ccc12 | – | – | – | CC50 at 72 h [7]: 10900 nM; IC50 (Plasmodium falciparum [8]): 92800 nM
17 | CN(c1ccnc2cc(Cl)ccc12)C(Cc1ccccc1)CN1CCCCC1 (stereo unspecified) | 490 nM | 69700 nM | 280 nM | –
18 | O=C(/C=C/c1ccc2c(c1)OCO2)c1ccc(S(=O)(=O)NCCCNc2cncc3cc(Cl)ccc23)cc1 | – | – | – | IC50 [9]: 34100 nM; IC50 (Plasmodium falciparum [10]): 690 nM
19 | CCN(CC)CC(Cc1ccccc1)N(C)c1ccnc2cc(Cl)ccc12 (stereo unspecified) | 330 nM | 79000 nM | 210 nM | –

Row | Structure (SMILES) | IC50 (Plasmodium falciparum [4]) | CC50 at 72 h [5] | IC50 (Plasmodium falciparum [6]) | further results
20 | O=C(/C=C/c1ccc(F)cc1)c1ccc(S(=O)(=O)NCCNc2cncc3cc(Cl)ccc23)cc1 | – | – | – | IC50 [9]: 14500 nM; IC50 (Plasmodium falciparum [10]): 570 nM
21 | CN(c1ccnc2cc(C(F)(F)F)ccc12)C(Cc1ccccc1)CN1CCCC1 (stereo unspecified) | 1770 nM | 39200 nM | 680 nM | –
22 | CC(C)CC(CN1CCOCC1)N(C)c1ccnc2cc(Cl)ccc12 (stereo unspecified) | 1190 nM | 50800 nM | 1160 nM | –
23 | CCN(CC)CC(CC(C)C)N(C)c1ccnc2cc(Cl)ccc12 (stereo unspecified) | 540 nM | 60300 nM | 230 nM | –
24 | CN(C)c1ccc(-c2cncn2CCNc2ccnc3cc(Cl)ccc23)cc1 | – | – | – | IC50 (Hemozoin [2]): 5000 nM; IC50 (Hemozoin [3]): 1090 nM
25 | CC(C)CC(CN1CCCC1)N(C)c1ccnc2cc(Cl)ccc12 (stereo unspecified) | 180 nM | 47000 nM | 80 nM | –
26 | CN(CCCN1CCCC1)c1ccnc2cc(C(F)(F)F)ccc12 | 310 nM | 78200 nM | 90 nM | –
27 | O=C1c2cccc(N3CCCCC3)c2C(=O)N1CCCCNc1ccnc2cc(Cl)ccc12 | – | – | – | IC50 at 24 h [1]: 54100 nM
28 | CC(C)CC(CN1CCCCC1)N(C)c1ccnc2cc(C(F)(F)F)ccc12 (stereo unspecified) | 2040 nM | 42600 nM | 2000 nM | –
29 | CCN(CC)CC(Cc1ccccc1)N(C)c1ccnc2cc(C(F)(F)F)ccc12 (stereo unspecified) | – | – | 1750 nM | –
30 | CN(CCCN1CCCCC1)c1ccnc2cc(Cl)ccc12 | 60 nM | 107000 nM | 40 nM | –
31 | Clc1ccc2c(NCCn3cncc3-c3ccco3)ccnc2c1 | – | – | – | IC50 (Hemozoin [2]): 290 nM; IC50 (Hemozoin [3]): 970 nM
32 | O=Cc1ccc(OCc2cn(CC(=O)NCCCNc3ccnc4cc(Cl)ccc34)nn2)cc1 | – | – | – | CC50 at 72 h [7]: 12200 nM; IC50 (Plasmodium falciparum [8]): 910 nM
33 | Clc1ccc2c(NCCn3cncc3C3CCCCC3)ccnc2c1 | – | – | – | IC50 (Hemozoin [2]): 190 nM; IC50 (Hemozoin [3]): 520 nM
34 | CN(c1ccnc2cc(Cl)ccc12)C(Cc1ccccc1)CN1CCCC1 (stereo unspecified) | 100 nM | 57800 nM | 60 nM | –
35 | CC(C)CC(CN1CCOCC1)N(C)c1ccnc2cc(C(F)(F)F)ccc12 (stereo unspecified) | 2250 nM | 68600 nM | 2720 nM | –
36 | Clc1ccc2c(NCCn3cncc3-c3ccc4ccccc4n3)ccnc2c1 | – | – | – | IC50 (Hemozoin [2]): 5000 nM; IC50 (Hemozoin [3]): 1330 nM
37 | C[C@H]1[C@@H](O)O[C@@H]2O[C@@]3(C)CC[C@H]4[C@H](C)CC[C@@H]1[C@@]24OO3 [ARTENIMOL] | – | – | – | IC50 (Plasmodium falciparum [12]): 1 nM; IC50 (Plasmodium falciparum [8]): 2 nM
38 | OC(c1cc(C(F)(F)F)nc2c(C(F)(F)F)cccc12)C1CCCCN1 (stereo unspecified) [MEFLOQUINE] | – | – | – | IC50 (Plasmodium falciparum [12]): 24 nM
